Reference: patent US20090041687A1 (priority 2005, published 2009)
Where a name gives a salt, the structure may show the parent alone.

These molecules were tested against T1, μ-opioid receptor (Homo sapiens, UniProt P35372) (assay: μ-opioid receptor binding assay and GTP-recruitment assay (screening for antagonists)). Details: [3H] DAMGO binding and DAMGO/GTP-Eu recruitment, membranes from CHO cells overexpressing the receptor; result in words.
T1 construct: purchased Perkin Elmer; host or cells: CHO cells (recombinant overexpression; membrane preparation)
Type: biochemical
Procedure: […] DAMGO (Amersham) in 50 mM Tris HCl pH 7.4 (Sigma), 10 mM MgCl2 (Sigma) and 0.2% BSA (Sigma) in the presence of the negative control DMSO (Fluka) or the test compounds. The incubation mixture was transferred to filter plates (Perkin Elmer), the liquid aspirated through the application of a vacuum from the bottom and the plate washed twice with PBS (Invitrogen). The plate was allowed to dry, 35 μl of scintillation cocktail (Ultima Gold, Perkin Elmer) added, sealed and placed on a TopCount (Packard) for scintillation counting.
[…] The incubation mixture was transferred to filter plates (Perkin Elmer), the liquid aspirated through the application of a vacuum from the bottom and the plate washed twice with PBS (Invitrogen) and allowed to dry. Plates were read in an Analyst reader (LJL Biosystems).

T1 sequence (P35372 whole entry): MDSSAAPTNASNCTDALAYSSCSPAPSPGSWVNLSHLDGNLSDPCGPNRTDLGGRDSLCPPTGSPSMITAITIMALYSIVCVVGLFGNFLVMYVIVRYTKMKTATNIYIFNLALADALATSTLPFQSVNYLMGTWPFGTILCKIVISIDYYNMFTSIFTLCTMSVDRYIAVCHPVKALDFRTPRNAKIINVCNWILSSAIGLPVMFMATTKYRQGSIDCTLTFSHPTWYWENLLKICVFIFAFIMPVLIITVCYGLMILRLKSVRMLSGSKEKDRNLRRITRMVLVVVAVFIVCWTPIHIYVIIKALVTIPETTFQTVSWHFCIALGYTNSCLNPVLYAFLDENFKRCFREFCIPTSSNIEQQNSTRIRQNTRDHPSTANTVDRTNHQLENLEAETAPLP

| SMILES | identified as opioid receptor antagonist in the screening |
| --- | --- |
| COC1=C(OC)C(=O)C=CC1=O [2,3-Dimethoxy-1,4-benzoquinone] | opioid receptor antagonists |
| COC1=C(OC)C(=O)C(C)=CC1=O [2,3-Dimethoxy-5-methyl-1,4-benzoquinone] | opioid receptor antagonists |
| COc1c(O)cc(C)c(O)c1OC [2,3-Dimethoxy-5-methylhydroquinone] | opioid receptor antagonists |
| COc1c(O)ccc(O)c1OC [2,3-Dimethoxyhydroquinone] | opioid receptor antagonists |
| O=C(/C=C/c1ccc(O)c(O)c1)c1ccc(O)c(O)c1O [2′,3′,4′,3,4-Pentahydroxychalcone] | opioid receptor antagonists |
| O=C1/C(=C/c2ccc(O)c(O)c2)Oc2cc(O)cc(O)c21 [Aureusidin] | opioid receptor antagonists |
| Oc1cc(O)c2cc(O)c(-c3cc(O)c(O)c(O)c3)[o+]c2c1 [Delphinidin chloride] | opioid receptor antagonists |
| O=C(Oc1cc(O)cc2c1C[C@@H](OC(=O)c1cc(O)c(O)c(O)c1)[C@@H](c1cc(O)c(O)c(O)c1)O2)c1cc(O)c(O)c(O)c1 [Epigallocatechin 3,5-Digallate] | opioid receptor antagonists |
| CC(=O)Oc1cc(-c2coc3cc(OC(C)=O)c(OC(C)=O)c(OC(C)=O)c3c2=O)cc(OC(C)=O)c1OC(C)=O [Irigenol Hexaacetate] | opioid receptor antagonists |
| O=c1c(-c2cc(O)c(O)c(O)c2)coc2cc(O)c(O)c(O)c12 [Irigenol ex Iris spp] | opioid receptor antagonists |
| C/C1=C\CCC(C)(O)/C=C/C(C(C)C)CC/C(C)=C/CC1 (stereo not shown) [Isocembrol] | opioid receptor antagonists |
| O=c1c(O)c(-c2ccc(O)c(O)c2)oc2cc(O)c(O)c(O)c12 [Quercetagetin] | opioid receptor antagonists |
| O=c1c(O)c(-c2cc(O)c(O)c(O)c2)oc2cc(O)ccc12 [Robinetin] | opioid receptor antagonists |
| CC(C)=CCC(OC(=O)C=C(C)C)C1=CC(=O)c2c(O)ccc(O)c2C1=O (stereo not drawn) [beta,beta-Dimethylacryl shikonin] | opioid receptor antagonists |

Same assay, conditions: [3H] DAMGO binding and DAMGO/GTP-Eu recruitment, membranes from CHO cells overexpressing the receptor; result in words; Hydrochloride

| SMILES | identified as opioid receptor antagonist in the screening |
| --- | --- |
| COc1cc2c3cc1Oc1c(OC)c(OC)cc4c1[C@@H](Cc1cccc(c1)Oc1ccc(c(O)c1)C[C@@H]3N(C)CC2)N(C)CC4 [Berbamine Hydrochloride] | opioid receptor antagonists |

Each molecule was assayed on human primary melanocytes from skin type IV (assay: total intracellular melanin production in human primary melanocytes (depigmentation)). Details: Naloxone 1 × 10^−4 M, 4 days, absorption of cell lysates at 475 nm, duplicate.
Type: cell-based
Procedure: Normal human melanocytes were cultured from freshly excised foreskin of skin type IV and treated with Dispase (ready-to-use, Roche) overnight at 4° C. Melanocytes dissociated from the epidermis were plated in culture flasks at high density using Melanocyte Growth Medium M2 (Promocell) supplemented with the corresponding growth factors (Promocell). These primary cells were cultivated under 100% humidity and 5% CO2 at 37° C. At the second passage, melanocytes were transferred to 6 well plates and allowed to reach 80% surface confluence.
Medium was renewed on day two of the experiment. Cells were harvested, counted and lysed in 1N NaOH using vigorous vortexing and a 30 minute incubation in an ultrasound bath. Melanin content was determined by measuring the absorption of cell lysates at 475 nm. Values were calibrated against a standard curve based on synthetic melanin (Sigma). The amount of melanin per 1 million cells is reported. Each treatment was run in duplicate.

| SMILES | Melanin (μg/10^6 cells) |
| --- | --- |
| C=CCN1CC[C@]23c4c5ccc(O)c4O[C@H]2C(=O)CC[C@@]3(O)[C@H]1C5 [Naloxone] | 1.05 μg/10^6 cells |

Same assay, conditions: Naloxone 1 × 10^−4 M, 4 days, versus control

| SMILES | Reduction of mean melanin content |
| --- | --- |
| C=CCN1CC[C@]23c4c5ccc(O)c4O[C@H]2C(=O)CC[C@@]3(O)[C@H]1C5 [Naloxone] | 86% |

Same assay, conditions: Naloxone 5 × 10^−6 M, 4 days, versus control

| SMILES | Reduction of mean melanin content |
| --- | --- |
| C=CCN1CC[C@]23c4c5ccc(O)c4O[C@H]2C(=O)CC[C@@]3(O)[C@H]1C5 [Naloxone] | 78% |

Same assay, conditions: result in words

| SMILES | intracellular melanin content compared to the control |
| --- | --- |
| C=CCN1CC[C@]23c4c5ccc(O)c4O[C@H]2C(=O)CC[C@@]3(O)[C@H]1C5 [Naloxone] | dramatically reduces intracellular melanin content |
